Laboratory results: paper PMC9025555, “Chiral Recognition R- and RS- of New Antifungal: Complexation/Solubilization/Dissolution Thermodynamics and Permeability Assay” (Pharmaceutics, 2022)
In brackets after ≈: the same amount, converted by molar mass. Blank lines part the entries; values can stand above or below the compound they belong to.

Experiments:
[1] = Phase solubility study (shake-flask) in buffers with 2-HP-β-CD; settings: for order of the solubility: compared with reported FCZ and L-173; for solubility at 3 days: thermodynamic from solid, solubility in pure buffer solution, pure buffer
Description: An excess amount of the substance was placed in the glass screw-capped vials with the solvent. The vials were stirred in an air thermostat for a certain period of time (a period of 3 days was estimated to be enough for reaching the equilibrium between the solid and the solvent). Then, the saturated solutions were kept in a thermostat in mild conditions no less than 12 h and thereafter centrifuged at a fixed temperature (Biofuge pico, Thermo Electron LED GmbH, Langenselbold, Germany) for 10 min at 12,000 rpm. […] The experimental results were reported as an average of at least three replicated experiments. Temperature uncertainty was ±0.1 K. The sensitivity of UV spectroscopic determinations was characterized by the values of the limit of detection (LOD)/limit of quantification (LOQ).

[2] = parameters: method as in doi:10.1016/j.molliq.2021.116535; settings: cited from earlier work
[3] = in vitro; assay type: in vitro ADME; settings: pH 7.4, pH 7.4; CD 0.01087 M; 310.15 K; read-out: Permeability Coefficient (Papp)
Description: Permeability coefficients of RS-186 and R-98 were measured through the PermeaPad barrier (PHABIOC, Germany, Espelkamp, www.permeapad.com, accessed on 20 May 2021) of an effective surface area of 0.785 cm^2 in a vertical type of Franz diffusion cell (PermeGear, Inc., Hellertown, PA, USA) with 7 mL volume. PermeaPad is a biomimetic membrane proposed by di Cagno and Bauer-Brandl for the fast screening of the permeability of the marketed drugs and drug-like compounds. In brief, the barrier was mounted between the donor and receptor chambers. The donor chamber was filled with a stock solution of the investigated substance in buffer solution at pH 2.0 or pH 7.4 and was stirred vigorously during the permeability experiment. The receptor compartment contained 1 mL of the respective fresh buffer. The system was thermostated at 310.15 ± 0.1 K. A probe of 0.5 mL was withdrawn every 30 min from the receptor chamber and replaced with an equal amount of the respective fresh buffer. The permeation process followed the reverse dialysis. The withdrawn samples were analyzed in 96-well UV black plate (Costar) via spectrophotometer (Spectramax 190; Molecular devices, Molecular Devices Corporation, California, CA, USA) at the appropriate wavelength. The permeation profiles were plotted as the amount of the permeated drug over the surface area ( dQ/A ) versus the time ( t ). The flux ( J ) was calculated as a slope of permeation profiles according to the equation:(6) J=dQ/A×dt
The apparent permeability coefficient ( Papp ) was calculated by normalizing the flux measured over the concentration of the drug in the donor compartment ( C0 ), as described by the equation:(7) Papp=J/Co
Each permeability experiment was repeated at least 3 times and the average value of Papp was determined.

[4] = cited from earlier work

order of the solubility ([1]; pH 2.0): (FCZ) > (RS-186 ≥ R-98) > (L-173)
order of the solubility ([1]; pH 7.4): (FCZ) > (R-98 ≥ RS-186) >> (L-173)
SMILES: OC(Cn1cncn1)(Cn1cncn1)c1ccc(F)cc1F [FCZ, fluconazole]
Papp (PermeaPad) [2]: 19 ×10⁻⁶ cm/s

order of the solubility ([1]; pH 2.0): (FCZ) > (RS-186 ≥ R-98) > (L-173)
order of the solubility ([1]; pH 7.4): (FCZ) > (R-98 ≥ RS-186) >> (L-173)
SMILES: O=C(CN1C(=O)S/C(=C\c2ccc(Cl)cc2)C1=O)N1CCN(CC(O)(Cn2cncn2)c2ccc(F)cc2F)CC1 [L-173, (5Z)-5-[(4-chlorophenyl)methylidene]-3-(2-{4-[2-(2,4-difluorophenyl)-2-hydroxy-3-(1H-1,2,4-triazol-1-yl)propyl]piperazin-1-yl}-2-oxoethyl)-1,3-thiazolidine-2,4-dione, reference compound]

SMILES: O=C1S/C(=C\c2ccc(Cl)cc2)C(=O)N1CC(O)CN1CCN(CC(O)(Cn2cncn2)c2ccc(F)cc2F)CC1 (stereo not shown) [R-98, (Z)-5-(4-chlorobenzylidene)-3-(3-(4-(2-(2,4-difluorophenyl)-2-hydroxy-3-(1H-1,2,4-triazol-1-yl)propyl)piperazin-1-yl)-2-hydroxypropyl)thiazolidine-2,4-dione]
Papp [3]: 1.19 ×10⁻⁶ cm/s
solubility at 3 days ([1]; pH 2, aqueous buffer, pH 2.0): 620 µM (≈ 384 µg/mL)
solubility at 3 days ([1]; pH 7.4, aqueous buffer, pH 7.4): 18 µM (≈ 11.1 µg/mL)

SMILES: CC(C)Cc1ccc(C(C)C(=O)O)cc1 (stereo not shown) [ibuprofen]
greater solubility of enantiomer against the racemate ([4]; pH 1.5): twice

SMILES: CC(C)NCC(O)COc1cccc2ccccc12.Cl (stereo not shown) [propranolol HCl]
greater solubility of racemic compound as compared to enantiomer [4]: 3.7 fold
